In patent publication US6444617B1, “Fused-heterocycle dicarboxylic acid diamide derivatives or salts thereof, herbicide and usage thereof” (Nihon Nohyaku Co., Ltd., priority 1998, dated 2002):

Columns and labels:
Assay type in all cases: in vivo
[1] = test system: velvetleaf (Abutilon theophtasti L.), At; test: Test Example 4: herbicidal effect on upland weeds after emergence; settings: dosage 5 kg/ha; sprayed after emergence; judged 14 days after treatment
Method in brief: (§1)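 Seeds sown in soil and covered. Plants raised to specified leaf stages. Agent with test compound at a prescribed concentration sprayed. Herbicidal effect and crop damage scored after 14 days as weed-killing rate.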

[2] = test system: barnyard grass (Echinochloa crus-galli Beauv.), Ec; test: as above; settings: dosage 5 kg/ha; sprayed after emergence; judged 14 days after treatment
Method in brief: as §1

[3] = test system: cleavers (Galium aparine L.), Ga; test: as above; settings: dosage 5 kg/ha; sprayed after emergence; judged 14 days after treatment
Method in brief: as §1

[4] = test system: cocklebur (Xanthium strumarium L.), Xs; test: as above; settings: dosage 5 kg/ha; sprayed after emergence; judged 14 days after treatment
Method in brief: as §1

[5] = test system: bird's eye speedwell (Veronica persica Poir.), Vp; test: as above; settings: dosage 5 kg/ha; sprayed after emergence; judged 14 days after treatment
Method in brief: as §1

[6] = test system: forxtail grass (Alopecurus aequalis var. amurensis Ohwi), Am; test: as above; settings: dosage 5 kg/ha; sprayed after emergence; judged 14 days after treatment
Method in brief: as §1

[7] = test system: bulrush (Scirpus juncoides Roxb.); test: Test Example 2: herbicidal effect on paddy field weeds after emergence; settings: Dosage 5 kg/ha; one-leaved stage; 21 days after treatment
Method in brief: (§2)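 Weeds in flooded paddy-soil pots were grown to the one-leaved stage, then the soil was treated with the compound solution at a set dosage.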

[8] = test system: barnyard grass (Echinochloa crus-galli Beauv.); test: as above; settings: Dosage 5 kg/ha; one-leaved stage; 21 days after treatment
Method in brief: as §2

[9] = test system: monochoria (Monochoria vaginalis Presl); test: as above; settings: Dosage 5 kg/ha; one-leaved stage; 21 days after treatment
Method in brief: as §2

[10] = test system: velvetleaf (Abutilon theophtasti L.), At; test: Test Example 3: herbicidal effect on upland weeds before emergence; settings: dosage 5 kg/ha
Method in brief: (§3)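 Steps: sow upland weed seeds; spray liquid formulation of active ingredient at prescribed concentration prior to emergence; after 14 days, calculate weed-killing rate; judge herbicidal effect.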

[11] = test system: barnyard grass (Echinochloa crus-galli Beauv.), Ec; test: as above; settings: dosage 5 kg/ha
Method in brief: as §3

[12] = test system: cleavers (Galium aparine L.), Ga; test: as above; settings: dosage 5 kg/ha
Method in brief: as §3

[13] = test system: cocklebur (Xanthium strumarium L.), Xs; test: as above; settings: dosage 5 kg/ha
Method in brief: as §3

[14] = test system: bird's eye speedwell (Veronica persica Poir.), Vp; test: as above; settings: dosage 5 kg/ha
Method in brief: as §3

[15] = test system: forxtail grass (Alopecurus aequalis var. amurensis Ohwi), Am; test: as above; settings: foxtail grass, dosage 5 kg/ha
Method in brief: as §3

[16] = test system: bulrush (Scirpus juncoides Roxb.); test: Test Example 1: herbicidal effect on paddy field weeds before emergence; settings: Dosage 5 kg/ha
Method in brief: (§4)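 Seeds of both weeds, still ungerminated, in soil pots held under paddy conditions received a set dose of test solution as soil treatment. After twenty-one days, control relative to untreated pots was calculated and rated on a scoring scale.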

[17] = test system: barnyard grass (Echinochloa crus-galli Beauv.); test: as above; settings: Dosage 5 kg/ha
Method in brief: as §4

soybean plant = test: Test Example 4: phytotoxicity to upland crop plants, treatment after emergence; settings: dosage 5 kg/ha, sprayed after emergence, judged 14 days after treatment
Method in brief: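 Post-emergence foliar spray, compound at prescribed concentration, applied at defined leaf stages; weeds plus soybean/wheat grown in soil vats. Read-out: weed-killing rate and crop injury, 14 d post-treatment.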

wheat = test: as above; settings: dosage 5 kg/ha, sprayed after emergence, judged 14 days after treatment
Method in brief: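 Scores of weed-killing rate, with crop phytotoxicity, come from inspection 14 days after plants in soil vats, grown to specified leaf stages, are sprayed with a formulation holding the compound at a prescribed concentration.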

wheat (Wh) = test: Test Example 3: phytotoxicity to upland crop plants, treatment before emergence; settings: dosage 5 kg/ha
Method in brief: (§5)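 Phytotoxicity scores for soybean and wheat were assigned by a set criterion 14 days after a pre-emergence spray of a liquid preparation containing the test compound at a prescribed concentration.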

soybean plant (So) = test: as above; settings: dosage 5 kg/ha
Method in brief: as §5

CCCNC(=O)c1nc2c(cc1C(=O)Nc1cccc(Cl)c1C)OCCC2 [compound 498] was tested, and the “Herbicidal effect At” value [1] was 5 (Weed-killing rate is 100%.), the “Herbicidal effect Ec” value [2] was 5 (Weed-killing rate is 100%.) and the “Herbicidal effect Ga” value [3] was 4 (Weed-killing rate is 90-99%.). The “Herbicidal effect Xs” value [4] was 4 (Weed-killing rate is 90-99%.), the “Herbicidal effect Vp” value [5] was 5 (Weed-killing rate is 100%.) and the “Herbicidal effect Am” value [6] was 5 (Weed-killing rate is 100%.). The “Post-emergence treatment Bulrush (herbicidal effect)” value (from here on “Post-emergence treatment Bulrush”) [7] was 5 (Weed-killing rate is 100%.), the “Post-emergence treatment Barnyard grass (herbicidal effect)” value (shortened to “Post-emergence treatment Barnyard grass”) [8] was 5 (Weed-killing rate is 100%.) and the “Post-emergence treatment Monochoria (herbicidal effect)” value (shortened to “Post-emergence treatment Monochoria”) [9] was 5 (Weed-killing rate is 100%.). For the same molecule, the “Herbicidal effect At” value [10] was 5 (Weed-killing rate is 100%.), the “Herbicidal effect Ec” value [11] was 5 (Weed-killing rate is 100%.) and the “Herbicidal effect Ga” value [12] was 4 (Weed-killing rate is 90-99%.). The “Herbicidal effect Xs” value [13] was 4 (Weed-killing rate is 90-99%.), the “Herbicidal effect Vp” value [14] was 5 (Weed-killing rate is 100%.) and the “Herbicidal effect Am” value [15] was 5 (Weed-killing rate is 100%.). For the same molecule, the “Pre-emergence treatment Bulrush (herbicidal effect)” value (shortened to “Pre-emergence treatment Bulrush”) [16] was 5 (Weed-killing rate is 100%.), the “Pre-emergence treatment Barnyard grass (herbicidal effect)” value (shortened to “Pre-emergence treatment Barnyard grass”) [17] was 5 (Weed-killing rate is 100%.) and the “Phytotoxicity So” value (soybean plant) was 4 (Crop-killing rate is 90-99%.). For the same molecule, the “Phytotoxicity Wh” value (wheat) was 4 (Crop-killing rate is 90-99%.), the “Phytotoxicity Wh” value (wheat (Wh)) was 4 (Crop-killing rate is 90-99%.) and the “Phytotoxicity So” value (soybean plant (So)) was 4 (Crop-killing rate is 90-99%.).
CCCNC(=O)c1nc2c(cc1C(=O)Nc1c(CC)ccc(Cl)c1CC)CCCS2 [compound 510] was tested, and the “Herbicidal effect At” value [1] was 5 (Weed-killing rate is 100%.), the “Herbicidal effect Ec” value [2] was 5 (Weed-killing rate is 100%.) and the “Herbicidal effect Ga” value [3] was 5 (Weed-killing rate is 100%.). The “Herbicidal effect Xs” value [4] was 5 (Weed-killing rate is 100%.), the “Herbicidal effect Vp” value [5] was 5 (Weed-killing rate is 100%.) and the “Herbicidal effect Am” value [6] was 5 (Weed-killing rate is 100%.). For the same molecule, the “Post-emergence treatment Bulrush” value [7] was 5 (Weed-killing rate is 100%.), the “Post-emergence treatment Barnyard grass” value [8] was 5 (Weed-killing rate is 100%.) and the “Post-emergence treatment Monochoria” value [9] was 5 (Weed-killing rate is 100%.). For the same molecule, the “Herbicidal effect At” value [10] was 5 (Weed-killing rate is 100%.), the “Herbicidal effect Ec” value [11] was 5 (Weed-killing rate is 100%.) and the “Herbicidal effect Ga” value [12] was 5 (Weed-killing rate is 100%.). The “Herbicidal effect Xs” value [13] was 5 (Weed-killing rate is 100%.), the “Herbicidal effect Vp” value [14] was 5 (Weed-killing rate is 100%.) and the “Herbicidal effect Am” value [15] was 5 (Weed-killing rate is 100%.). For the same molecule, the “Pre-emergence treatment Bulrush” value [16] was 5 (Weed-killing rate is 100%.), the “Pre-emergence treatment Barnyard grass” value [17] was 5 (Weed-killing rate is 100%.) and the “Phytotoxicity So” value (soybean plant) was 4 (Crop-killing rate is 90-99%.). For the same molecule, the “Phytotoxicity Wh” value (wheat) was 5 (Crop-killing rate is 100%.), the “Phytotoxicity Wh” value (wheat (Wh)) was 5 (Crop-killing rate is 100%.) and the “Phytotoxicity So” value (soybean plant (So)) was 4 (Crop-killing rate is 90-99%.).
For CCc1ccc(Cl)c(CC)c1NC(=O)c1cc2c(nc1C(=O)NC1CCCC1)SCCC2 [compound 519], the “Herbicidal effect At” value [1] was 5 (Weed-killing rate is 100%.), the “Herbicidal effect Ec” value [2] was 5 (Weed-killing rate is 100%.) and the “Herbicidal effect Ga” value [3] was 5 (Weed-killing rate is 100%.). The “Herbicidal effect Xs” value [4] was 5 (Weed-killing rate is 100%.), the “Herbicidal effect Vp” value [5] was 5 (Weed-killing rate is 100%.) and the “Herbicidal effect Am” value [6] was 5 (Weed-killing rate is 100%.). The “Post-emergence treatment Bulrush” value [7] was 5 (Weed-killing rate is 100%.), the “Post-emergence treatment Barnyard grass” value [8] was 5 (Weed-killing rate is 100%.) and the “Post-emergence treatment Monochoria” value [9] was 5 (Weed-killing rate is 100%.). For the same molecule, the “Herbicidal effect At” value [10] was 5 (Weed-killing rate is 100%.), the “Herbicidal effect Ec” value [11] was 5 (Weed-killing rate is 100%.) and the “Herbicidal effect Ga” value [12] was 5 (Weed-killing rate is 100%.). The “Herbicidal effect Xs” value [13] was 5 (Weed-killing rate is 100%.), the “Herbicidal effect Vp” value [14] was 5 (Weed-killing rate is 100%.) and the “Herbicidal effect Am” value [15] was 5 (Weed-killing rate is 100%.). For the same molecule, the “Pre-emergence treatment Bulrush” value [16] was 5 (Weed-killing rate is 100%.), the “Pre-emergence treatment Barnyard grass” value [17] was 5 (Weed-killing rate is 100%.) and the “Phytotoxicity So” value (soybean plant) was 4 (Crop-killing rate is 90-99%.). For the same molecule, the “Phytotoxicity Wh” value (wheat) was 5 (Crop-killing rate is 100%.), the “Phytotoxicity Wh” value (wheat (Wh)) was 5 (Crop-killing rate is 100%.) and the “Phytotoxicity So” value (soybean plant (So)) was 4 (Crop-killing rate is 90-99%.).
For Cc1c(Cl)cccc1NC(=O)c1cc2c(nc1C(=O)NCC(C)C)SCCC2 [compound 527], the “Herbicidal effect At” value [1] was 5 (Weed-killing rate is 100%.), the “Herbicidal effect Ec” value [2] was 5 (Weed-killing rate is 100%.) and the “Herbicidal effect Ga” value [3] was 5 (Weed-killing rate is 100%.). For the same molecule, the “Herbicidal effect Xs” value [4] was 4 (Weed-killing rate is 90-99%.), the “Herbicidal effect Vp” value [5] was 5 (Weed-killing rate is 100%.) and the “Herbicidal effect Am” value [6] was 5 (Weed-killing rate is 100%.). The “Post-emergence treatment Bulrush” value [7] was 5 (Weed-killing rate is 100%.), the “Post-emergence treatment Barnyard grass” value [8] was 5 (Weed-killing rate is 100%.) and the “Post-emergence treatment Monochoria” value [9] was 5 (Weed-killing rate is 100%.). The “Herbicidal effect At” value [10] was 5 (Weed-killing rate is 100%.), the “Herbicidal effect Ec” value [11] was 5 (Weed-killing rate is 100%.) and the “Herbicidal effect Ga” value [12] was 5 (Weed-killing rate is 100%.). For the same molecule, the “Herbicidal effect Xs” value [13] was 4 (Weed-killing rate is 90-99%.), the “Herbicidal effect Vp” value [14] was 5 (Weed-killing rate is 100%.) and the “Herbicidal effect Am” value [15] was 5 (Weed-killing rate is 100%.). The “Pre-emergence treatment Bulrush” value [16] was 5 (Weed-killing rate is 100%.), the “Pre-emergence treatment Barnyard grass” value [17] was 5 (Weed-killing rate is 100%.) and the “Phytotoxicity So” value (soybean plant) was 5 (Crop-killing rate is 100%.). The “Phytotoxicity Wh” value (wheat) was 5 (Crop-killing rate is 100%.), the “Phytotoxicity Wh” value (wheat (Wh)) was 5 (Crop-killing rate is 100%.) and the “Phytotoxicity So” value (soybean plant (So)) was 5 (Crop-killing rate is 100%.).
CCCNC(=O)c1nc2c(cc1C(=O)Nc1c(CC)ccc(Cl)c1CC)CCSC2 [compound 534] was tested, and the “Herbicidal effect At” value [1] was 5 (Weed-killing rate is 100%.), the “Herbicidal effect Ec” value [2] was 5 (Weed-killing rate is 100%.) and the “Herbicidal effect Ga” value [3] was 5 (Weed-killing rate is 100%.). For the same molecule, the “Herbicidal effect Xs” value [4] was 5 (Weed-killing rate is 100%.), the “Herbicidal effect Vp” value [5] was 5 (Weed-killing rate is 100%.) and the “Herbicidal effect Am” value [6] was 5 (Weed-killing rate is 100%.). The “Post-emergence treatment Bulrush” value [7] was 5 (Weed-killing rate is 100%.), the “Post-emergence treatment Barnyard grass” value [8] was 5 (Weed-killing rate is 100%.) and the “Post-emergence treatment Monochoria” value [9] was 5 (Weed-killing rate is 100%.). For the same molecule, the “Herbicidal effect At” value [10] was 5 (Weed-killing rate is 100%.), the “Herbicidal effect Ec” value [11] was 5 (Weed-killing rate is 100%.) and the “Herbicidal effect Ga” value [12] was 5 (Weed-killing rate is 100%.). For the same molecule, the “Herbicidal effect Xs” value [13] was 5 (Weed-killing rate is 100%.), the “Herbicidal effect Vp” value [14] was 5 (Weed-killing rate is 100%.) and the “Herbicidal effect Am” value [15] was 5 (Weed-killing rate is 100%.). For the same molecule, the “Pre-emergence treatment Bulrush” value [16] was 5 (Weed-killing rate is 100%.), the “Pre-emergence treatment Barnyard grass” value [17] was 5 (Weed-killing rate is 100%.) and the “Phytotoxicity So” value (soybean plant) was 4 (Crop-killing rate is 90-99%.). For the same molecule, the “Phytotoxicity Wh” value (wheat) was 4 (Crop-killing rate is 90-99%.), the “Phytotoxicity Wh” value (wheat (Wh)) was 4 (Crop-killing rate is 90-99%.) and the “Phytotoxicity So” value (soybean plant (So)) was 3 (Crop-killing rate is 70-89%.).
